Experiments:
Assay type in all cases: cell-based
OR8/OR7 = OR8/OR7 (Anopheles gambiae, UniProt Q7PUT5+Q7QCC7); test: Ca2+-imaging of stable HEK293T cell line OR8/OR7; details: for inhibition at 4 µM: HEK-293T, compound applied at 4 μM, read-out: Percent Inhibition OR8 OR7
How it was run: (§1)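 Odorant solutions were prepared in HBSS at 9× final, with test compounds transferred in from […] DMSO stocks. These mixtures were applied to dye-loaded HEK293T stable receptor lines, and calcium responses were recorded in real time.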

OR10/OR7 = OR10/OR7 (Anopheles gambiae, UniProt B5U0U7+Q7QCC7); test: Ca2+-imaging of stable HEK293T cell line OR10/OR7; details: for inhibition at 4 µM: HEK-293T, compound applied at 4 μM, read-out: Percent Inhibition OR10 OR7; for IC50: Table B, read-out: IC50 OR10
How it was run: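 Stable HEK293T line co-expressing OR10/OR7, plated 2 days on poly-D-lysine, loaded with Ca-4 dye 1.5 hr at room temperature. Compounds premixed into odorant in HBSS and applied on FDSS6000. Ca2+ rise followed by fluorescence at 525 nm (excitation 485 nm).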

OR28/OR7 = OR28/OR7 (Anopheles gambiae, UniProt A0A1S4GFY3+Q7QCC7); test: Ca2+-imaging of stable HEK293T cell line OR28/OR7; details: for inhibition at 4 µM: HEK-293T, compound applied at 4 μM, read-out: Percent Inhibition OR28 OR7; for IC50: Table B, read-out: IC50 OR28
How it was run: as §1

mOREG = molecular target: T1, mOREG (Mus musculus, UniProt Q920P2); test: Ca2+-imaging, control receptor mOREG; details: for inhibition at 4 µM: compound applied at 4 μM, read-out: Percent Inhibition mOREG
T1 sequence (Q920P2 1-313): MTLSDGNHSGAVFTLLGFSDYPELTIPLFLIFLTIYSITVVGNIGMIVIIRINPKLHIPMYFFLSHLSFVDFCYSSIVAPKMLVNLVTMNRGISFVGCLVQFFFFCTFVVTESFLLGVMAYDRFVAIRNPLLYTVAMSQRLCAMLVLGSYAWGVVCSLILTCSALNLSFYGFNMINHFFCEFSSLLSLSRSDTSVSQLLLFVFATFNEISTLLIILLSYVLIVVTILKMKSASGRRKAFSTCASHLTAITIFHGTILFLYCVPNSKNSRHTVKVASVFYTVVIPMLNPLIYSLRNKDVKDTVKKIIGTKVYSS
How it was run: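 Stable cell lines plated 2 days on poly-D-lysine, loaded with Ca-4 dye 1.5 hr at room temperature, then challenged with odorant in HBSS containing pre-added compounds. Intracellular Ca2+ rise followed by real-time fluorescence, 485 nm excitation/525 nm emission; HBSS and ligand wells serve as negative and positive controls.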

TRP channel (TRPM8) = molecular target: T2, TRP channel (TRPM8) (Mus musculus, UniProt Q8R4D5); test: Ca2+-imaging of stable HEK293T cell line TRPM8; details: for inhibition at 4 µM: HEK-293T, compound applied at 4 μM, read-out: Percent Inhibition TRPM8
T2 construct: Full-length cDNAs for mosquito (Anopheles gambiae) odorant receptor (OR1, OR2, OR7, OR8, OR28), and fly (Drosophila melanogaster) odorant receptor (Or47a, Or83b), mouse TRP channel (TRPM8); expressed in transfected cells
How it was run: as §1

T2 sequence (Q8R4D5 whole entry): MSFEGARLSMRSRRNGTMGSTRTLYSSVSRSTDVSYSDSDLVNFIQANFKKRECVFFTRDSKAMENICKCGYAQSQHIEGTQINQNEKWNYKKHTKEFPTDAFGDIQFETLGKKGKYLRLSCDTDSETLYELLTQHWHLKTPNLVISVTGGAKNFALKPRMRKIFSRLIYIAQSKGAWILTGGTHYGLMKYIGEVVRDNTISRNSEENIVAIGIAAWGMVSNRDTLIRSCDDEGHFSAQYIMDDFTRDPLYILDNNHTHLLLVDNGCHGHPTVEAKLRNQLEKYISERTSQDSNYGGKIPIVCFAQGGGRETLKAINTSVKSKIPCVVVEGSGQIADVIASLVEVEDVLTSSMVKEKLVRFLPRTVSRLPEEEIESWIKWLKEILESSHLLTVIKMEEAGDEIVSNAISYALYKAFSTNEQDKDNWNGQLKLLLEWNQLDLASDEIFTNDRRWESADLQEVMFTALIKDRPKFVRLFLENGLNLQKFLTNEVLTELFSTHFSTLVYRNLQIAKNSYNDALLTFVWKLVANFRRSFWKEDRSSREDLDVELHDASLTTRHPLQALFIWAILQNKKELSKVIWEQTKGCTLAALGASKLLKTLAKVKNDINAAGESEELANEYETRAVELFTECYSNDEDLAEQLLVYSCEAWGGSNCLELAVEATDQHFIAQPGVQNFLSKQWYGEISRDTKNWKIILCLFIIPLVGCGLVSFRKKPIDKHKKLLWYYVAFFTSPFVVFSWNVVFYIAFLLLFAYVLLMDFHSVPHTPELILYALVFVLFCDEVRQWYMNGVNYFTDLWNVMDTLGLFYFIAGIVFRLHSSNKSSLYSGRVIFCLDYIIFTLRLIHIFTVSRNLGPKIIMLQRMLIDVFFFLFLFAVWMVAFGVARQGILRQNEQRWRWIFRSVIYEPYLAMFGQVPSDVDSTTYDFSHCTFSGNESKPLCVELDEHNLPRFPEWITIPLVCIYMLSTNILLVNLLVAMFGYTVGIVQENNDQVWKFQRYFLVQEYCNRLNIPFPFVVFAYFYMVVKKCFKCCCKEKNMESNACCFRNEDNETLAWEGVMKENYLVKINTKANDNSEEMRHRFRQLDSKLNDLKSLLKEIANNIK
Chain of OR10/OR7 (Q7QCC7 whole entry): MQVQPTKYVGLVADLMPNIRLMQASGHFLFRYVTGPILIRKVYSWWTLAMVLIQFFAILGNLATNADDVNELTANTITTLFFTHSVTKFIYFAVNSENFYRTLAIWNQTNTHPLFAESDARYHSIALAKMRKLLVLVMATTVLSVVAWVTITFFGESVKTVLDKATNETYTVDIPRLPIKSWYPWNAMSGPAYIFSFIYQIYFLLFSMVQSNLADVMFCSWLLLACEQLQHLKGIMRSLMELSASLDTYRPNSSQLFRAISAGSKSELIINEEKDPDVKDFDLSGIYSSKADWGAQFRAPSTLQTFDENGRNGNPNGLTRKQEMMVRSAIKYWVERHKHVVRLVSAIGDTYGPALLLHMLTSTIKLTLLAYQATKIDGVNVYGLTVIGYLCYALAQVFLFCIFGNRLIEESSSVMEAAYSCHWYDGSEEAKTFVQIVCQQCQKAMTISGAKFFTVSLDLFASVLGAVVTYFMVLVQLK
Chain of OR10/OR7 (B5U0U7 entry or part of it): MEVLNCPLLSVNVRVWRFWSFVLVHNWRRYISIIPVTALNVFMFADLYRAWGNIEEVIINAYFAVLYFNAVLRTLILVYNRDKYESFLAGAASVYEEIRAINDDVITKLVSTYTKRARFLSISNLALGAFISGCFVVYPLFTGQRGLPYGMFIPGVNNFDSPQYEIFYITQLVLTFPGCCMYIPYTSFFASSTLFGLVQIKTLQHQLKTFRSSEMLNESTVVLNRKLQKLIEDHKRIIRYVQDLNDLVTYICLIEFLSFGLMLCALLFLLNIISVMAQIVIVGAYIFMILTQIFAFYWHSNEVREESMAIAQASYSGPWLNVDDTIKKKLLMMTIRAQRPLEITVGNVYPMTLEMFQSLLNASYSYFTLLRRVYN
Chain of OR8/OR7 (Q7QCC7 whole entry): as the sequence (Q7QCC7 whole entry) above
Chain of OR8/OR7 (Q7PUT5 entry or part of it): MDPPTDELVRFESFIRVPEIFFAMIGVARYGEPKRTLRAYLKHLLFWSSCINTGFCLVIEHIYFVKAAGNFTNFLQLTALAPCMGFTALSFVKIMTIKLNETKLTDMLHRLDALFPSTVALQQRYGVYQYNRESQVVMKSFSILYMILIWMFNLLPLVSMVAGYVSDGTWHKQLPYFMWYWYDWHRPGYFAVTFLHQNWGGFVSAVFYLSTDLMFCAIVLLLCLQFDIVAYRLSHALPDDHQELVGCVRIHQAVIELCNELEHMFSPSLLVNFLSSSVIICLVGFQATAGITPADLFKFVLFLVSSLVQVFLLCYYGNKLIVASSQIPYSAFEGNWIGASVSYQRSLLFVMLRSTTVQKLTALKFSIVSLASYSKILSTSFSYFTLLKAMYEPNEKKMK
Chain of OR28/OR7 (A0A1S4GFY3 entry or part of it): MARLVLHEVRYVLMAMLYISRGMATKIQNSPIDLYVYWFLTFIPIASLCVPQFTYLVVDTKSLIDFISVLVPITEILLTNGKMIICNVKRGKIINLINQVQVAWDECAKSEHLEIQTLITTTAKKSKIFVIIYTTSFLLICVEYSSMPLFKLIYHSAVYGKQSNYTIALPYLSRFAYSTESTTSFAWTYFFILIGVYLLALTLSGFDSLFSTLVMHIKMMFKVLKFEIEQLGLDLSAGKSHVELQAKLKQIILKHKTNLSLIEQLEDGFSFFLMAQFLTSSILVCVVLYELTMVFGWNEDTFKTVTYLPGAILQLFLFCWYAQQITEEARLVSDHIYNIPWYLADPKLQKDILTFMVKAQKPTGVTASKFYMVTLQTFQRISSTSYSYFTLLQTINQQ
Chain of OR28/OR7 (Q7QCC7 whole entry): as the sequence (Q7QCC7 whole entry) above

Structure (SMILES) | inhibition at 4 µM (OR8/OR7) [%] | inhibition at 4 µM (OR10/OR7) [%] | inhibition at 4 µM (OR28/OR7) [%] | IC50 (OR28/OR7) [nM] | inhibition at 4 µM (mOREG) [%] | inhibition at 4 µM (TRP channel (TRPM8)) [%] | IC50 (OR8/OR7; Table B, read-out: IC50 OR8) [nM] | IC50 (TRP channel (TRPM8); Table B, read-out: IC50 TRPM8) [nM] | IC50 (OR10/OR7) [nM] | IC50 (mOREG; Table B) [nM]
C=CCOc1cccc(C(=O)N2CCCC(C(=O)c3ccccc3OC)C2)c1 (centres unmarked) [RU-0029409] | 26 to 50 | 26 to 50 | > 75 | < 100 | < 25 | 26 to 50 |  |  |  | 
O=C(c1ccco1)N(Cc1nccn1Cc1ccccc1Cl)CC1CC1 [RU-0047281] | > 75 | > 75 | > 75 | < 100 | 26 to 50 | 51 to 74 | > 1000 | > 1000 |  | 
CC(=O)OCC(=O)NCC1Cc2cc(Oc3ccccc3)ccc2O1 (centres unmarked) [RU-0079120] | < 25 | > 75 | > 75 | < 100 | < 25 | < 25 |  |  | < 100 | 
Cc1cc(N(C)C2CCCCC2)nc(SCc2cccc(C(=O)N3CCCC3)c2)n1 [RU-0034108] | < 25 | 26 to 50 | 26 to 50 |  | < 25 | < 25 |  |  |  | 
Cc1nn(-c2ccc(Cl)cc2)c(C)c1C(=O)NCc1ccccn1 [RU-0048608] | < 25 | 51 to 74 | > 75 | < 100 | < 25 | < 25 |  |  | > 1000 | 
CCCCCCCC(=O)N1CCCC(C(=O)NC2CCCC[C@H]2NC(=O)c2ccccc2C)C1 (some centres unmarked) [RU-0045756] | < 25 | < 25 | 51 to 74 | > 1000 | 26 to 50 | < 25 |  |  |  | 
Cc1cccc(NC(=O)CCC2CCN(C(=O)CCOc3ccccc3)CC2)c1 [RU-0030324] | 26 to 50 | 26 to 50 | > 75 | < 100 | 51 to 74 | 26 to 50 |  |  |  | > 1000
Cc1ccccc1C(=O)N[C@@H]1CCCCC1NC(=O)C1CCCN(S(=O)(=O)c2cc(Cl)ccc2Cl)C1 (some centres unmarked) [RU-0045691] | < 25 | 26 to 50 | > 75 | < 100 | 26 to 50 | < 25 |  |  |  | 
C=CCN(Cc1nccn1Cc1ccccc1F)C(=O)c1cccc(F)c1 [RU-0058232] | 26 to 50 | > 75 | > 75 | < 100 | 26 to 50 | 26 to 50 |  |  | < 100 | 
COc1ccc(OCC(=O)N2CCOC(Cc3ccccc3)C2)cc1 (centres unmarked) [RU-0050384] | < 25 | < 25 | > 75 | 100 to 1000 | < 25 | < 25 |  |  |  | 
C=CCNC(=O)C(NC(=O)c1cccc(C)c1)C1CCN(C(=O)c2cccc(Br)c2)CC1 (centres unmarked) [RU-0039123] | 26 to 50 | 26 to 50 | > 75 | < 100 | 26 to 50 | < 25 |  |  |  | 

— US20130324522A1, “INSECT ODORANT RECEPTOR ANTAGONISTS” (THE ROCKEFELLER UNIVERSITY, priority 2010, published 2013)
